Test results published in patent publication US20080214845A1, “ANTIBACTERIAL 6'-MODIFIED 4,5-SUBSTITUTED AMINOGLYCOSIDE ANALOGS” (priority 2005, published 2008).
≈ marks a conversion by molar mass, not a printed value.

Experiments:
[1] = system: Staphylococcus aureus (Smith strain ATCC 13709); assay: Staphylococcus aureus mouse protection assay; type: in vivo; settings: Staph conc. 10^6 IP in 10% mucin, treatments at 1 hour and 3 hour post infection
Protocol: Two of the novel aminoglycoside compounds of the invention were examined for their anitbacterial activity against staphylococcus aureus. The mice were infected IP with 0.5 ml […] staphylococcus aureus in 10% mucin. There were 10 mice in each treated group with treatments at 1 hour and 3 hour post infection. The Ibis compounds (IBIS00561085 R4═R5═CH3 and IBIS00561141 R4═H, R5═(CH2)2C6H5) were used at 75 mg/kg, 37.5 mg/kg, 18.8 mg/kg, 9.4 mg/kg, 4.7 mg/kg, 2.3 mg/kg, 1.17 mg/kg and 0.5 mg/kg. Amakacin, Paromomycin and Neomycin were used as the positive controls at concentration of 2 mg/kg, 1 mg/kg and 0.5 mg/kg.

[2] = system: S. Aureus; assay: Minimum inhibitory concentration (MIC), S. aureus; type: cell-based; settings: range of concentration, 20-24 hours at 37° C., A595; for MIC: Staphylococcus aureus
Protocol: (§1) The assays are carried out in 150 μL volume in duplicate in 96-well clear flat-bottom plates. The bacterial suspension from an overnight culture growth in appropriate medium is added to a solution of test compound in 2.5% DMSO in water. Final bacterial inoculum is approximately 10^2-10^3 CFU/well. The percentage growth of the bacteria in test wells relative to that observed for a control wells containing no compound is determined by measuring absorbance at 595 nm (A595) after 20-24 hours at 37° C. The MIC is determined as a range of concentration where complete inhibition of growth is observed at the higher concentration and bacterial cells are viable at the lower concentration. Both ampicillin and tetracycline are used as antibiotic positive controls in each screening assay.

[3] = system: E. coli S30 bacterial extract (pBest Luc luciferase transcription/translation); assay: Coupled bacterial transcription/translation assay (T/T); type: biochemical; settings: luciferase reporter, 35 minutes at 37° C., read-out: Trans/Trans IC50
Protocol: The DNA template, pBest Luc™ (Promega), is a plasmid containing a reporter gene for firefly luciferase fused to a strong tac promoter and ribosome binding site. Messenger RNA from 1 μg pBestLuc was transcribed and translated in E. coli S30 bacterial extract in the presence or absence of test compound. Compounds were tested in a black 96 well microtiter plate with an assay volume of […]. Each test well contained: 5 μL test compound, 13 μL S30 premix (Promega), 4 μL 10× complete amino acid mix (1 mM each), 5 μL E. coli S30 extract and 8 μL of 0.125 μg/μL pBest Luc™. The transcription/translation reaction was incubated for 35 minutes at 37° C. followed by detection of functional luciferase with the addition of 30 μL LucLite™ (Packard). Light output was quantitated on a Packard TopCount.

[4] = molecular target: 16S; assay: Measurement of 16S Kd by FTICR mass spectrometry; type: binding
Protocol: (§2) Was performed according to the published report; […]-Lowery, […].; Mohan, […]. et al. Characterization of Low Affinity Complexes Between RNA and Small Molecules Using Electrospray Ionization Mass Spectrometry. J. Am. Chem. […] Screening is performed by measuring the formation of non-covalent complexes between a single ligand or ligand mixture and the appropriate RNA target, along with suitable control structured RNA target(s) simultaneously using a 9.4 T FT-ICR mass spectrometer as detector. Full experimental details of the assay have been described in related literature ([…]-Lowery, et al. in TrAC, Trends Anal. […] The abundances were integrated from the respective ions for free RNA and the ligand-RNA complex. […] The peak ratios are measured at each concentration, then a plot of complex/free RNA versus concentration of ligand added is fitted to a second (or higher) order binding polynomial to determine the KD.

[5] = system: E. Coli.; assay: Minimum inhibitory concentration (MIC), E. coli; type: cell-based; settings: range of concentration, 20-24 hours at 37° C., A595; for MIC: Escherichia coli
Protocol: as §1

[6] = molecular target: 18S; assay: 18S Kd by FTICR mass spectrometry; type: binding
Protocol: as §2

NCC[C@H](O)C(=O)N[C@@H]1C[C@H](N)[C@@H](O[C@H]2O[C@H](CN)[C@@H](O)[C@H](O)[C@H]2O)[C@H](O)[C@H]1O[C@H]1O[C@H](CO)[C@@H](O)[C@H](N)[C@H]1O [Amikacin]
# Dead mice/Total mice in group ([1]; 0.5 mg/kg): 8/10 (10% Mucin)
# Dead mice/Total mice in group ([1]; 1 mg/kg): 10/10 (10% Mucin)
# Dead mice/Total mice in group ([1]; 2 mg/kg): 8/10 (10% Mucin)

CNC[C@H]1O[C@H](O[C@H]2[C@H](O[C@@H]3O[C@H](CO)[C@@H](O[C@H]4O[C@@H](CN)[C@@H](O)[C@H](O)[C@H]4N)[C@H]3O)[C@@H](O)[C@H](N)C[C@@H]2N)[C@H](N)[C@@H](O)[C@@H]1O [IBIS00560186]
MIC S. Aureus [2]: 2 to 3 µM
IC50 [3]: 159 nM
Kd [4]: 362 nM
MIC E. Coli. [5]: 2 to 3 µM
Kd [6]: 1160 nM

NC[C@@H]1O[C@H](O[C@H]2[C@@H](O)[C@H](O[C@@H]3[C@@H](O)[C@H](N)C[C@H](N)[C@H]3O[C@H]3O[C@H](CNN)[C@@H](O)[C@H](O)[C@H]3N)O[C@@H]2CO)[C@H](N)[C@@H](O)[C@@H]1O [IBIS00560187]
MIC S. Aureus [2]: 3 to 6 µM
IC50 [3]: 235 nM
Kd [4]: 564 nM
MIC E. Coli. [5]: 12 to 25 µM
Kd [6]: 1660 nM

CC(C)(C)OC(=O)NNC[C@H]1O[C@H](O[C@H]2[C@H](O[C@@H]3O[C@H](CO)[C@@H](O[C@H]4O[C@@H](CN)[C@@H](O)[C@H](O)[C@H]4N)[C@H]3O)[C@@H](O)[C@H](N)C[C@@H]2N)[C@H](N)[C@@H](O)[C@@H]1O [IBIS00561082]
MIC S. Aureus [2]: 12 to 25 µM
IC50 [3]: 308 nM
Kd [4]: 14.9 nM
MIC E. Coli. [5]: 6 to 12 µM
Kd [6]: 1350 nM

CC(C)NC[C@H]1O[C@H](O[C@H]2[C@H](O[C@@H]3O[C@H](CO)[C@@H](O[C@H]4O[C@@H](CN)[C@@H](O)[C@H](O)[C@H]4N)[C@H]3O)[C@@H](O)[C@H](N)C[C@@H]2N)[C@H](N)[C@@H](O)[C@@H]1O [IBIS00561095]
MIC S. Aureus [2]: 1.25 to 2.5 µM
IC50 [3]: 202 nM
Kd [4]: 1180 nM
MIC E. Coli. [5]: 2.5 to 5.0 µM
Kd [6]: 1200 nM

NCCCNC[C@H]1O[C@H](O[C@H]2[C@H](O[C@@H]3O[C@H](CO)[C@@H](O[C@H]4O[C@@H](CN)[C@@H](O)[C@H](O)[C@H]4N)[C@H]3O)[C@@H](O)[C@H](N)C[C@@H]2N)[C@H](N)[C@@H](O)[C@@H]1O [IBIS00561096]
MIC S. Aureus [2]: 1.25 to 2.5 µM
IC50 [3]: 175 nM
Kd [4]: 1590 nM
MIC E. Coli. [5]: 2.5 to 5.0 µM
Kd [6]: 1450 nM

NCCCCNC[C@H]1O[C@H](O[C@H]2[C@H](O[C@@H]3O[C@H](CO)[C@@H](O[C@H]4O[C@@H](CN)[C@@H](O)[C@H](O)[C@H]4N)[C@H]3O)[C@@H](O)[C@H](N)C[C@@H]2N)[C@H](N)[C@@H](O)[C@@H]1O [IBIS00561140]
MIC [2]: 10 to 20 µM (≈ 6.86 to 13.7 µg/mL)
IC50 [3]: 32 nM
Kd [4]: 6260 nM
MIC [5]: 2.5 to 5 µM (≈ 1.71 to 3.43 µg/mL)
Kd [6]: 6020 nM

Cc1ccc(CCNC[C@H]2O[C@H](O[C@H]3[C@H](O[C@@H]4O[C@H](CO)[C@@H](O[C@H]5O[C@@H](CN)[C@@H](O)[C@H](O)[C@H]5N)[C@H]4O)[C@@H](O)[C@H](N)C[C@@H]3N)[C@H](N)[C@@H](O)[C@@H]2O)cc1 [IBIS00561930]
MIC S. Aureus [2]: 0.6 to 1.2 µM
MIC E. Coli. [5]: 2.5 to 5.0 µM

CN(CCc1ccccc1)C[C@H]1O[C@H](O[C@H]2[C@H](O[C@@H]3O[C@H](CO)[C@@H](O[C@H]4O[C@@H](CN)[C@@H](O)[C@H](O)[C@H]4N)[C@H]3O)[C@@H](O)[C@H](N)C[C@@H]2N)[C@H](N)[C@@H](O)[C@@H]1O [IBIS00561931]
MIC S. Aureus [2]: 0.31 to 0.62 µM
MIC E. Coli. [5]: 2.5 to 5.0 µM

NC[C@@H]1O[C@H](O[C@H]2[C@@H](O)[C@H](O[C@@H]3[C@@H](O)[C@H](N)C[C@H](N)[C@H]3O[C@H]3O[C@H](CNCCCc4ccccc4)[C@@H](O)[C@H](O)[C@H]3N)O[C@@H]2CO)[C@H](N)[C@@H](O)[C@@H]1O [IBIS00561932]
MIC S. Aureus [2]: 0.31 to 0.62 µM
MIC E. Coli. [5]: 0.6 to 1.2 µM

COc1ccc(CCNC[C@H]2O[C@H](O[C@H]3[C@H](O[C@@H]4O[C@H](CO)[C@@H](O[C@H]5O[C@@H](CN)[C@@H](O)[C@H](O)[C@H]5N)[C@H]4O)[C@@H](O)[C@H](N)C[C@@H]3N)[C@H](N)[C@@H](O)[C@@H]2O)cc1 [IBIS00561933]
MIC [2]: 0.31 to 0.62 µM (≈ 0.232 to 0.464 µg/mL)
MIC [5]: 1.25 to 2.5 µM (≈ 0.936 to 1.87 µg/mL)

COc1cccc(CCNC[C@H]2O[C@H](O[C@H]3[C@H](O[C@@H]4O[C@H](CO)[C@@H](O[C@H]5O[C@@H](CN)[C@@H](O)[C@H](O)[C@H]5N)[C@H]4O)[C@@H](O)[C@H](N)C[C@@H]3N)[C@H](N)[C@@H](O)[C@@H]2O)c1 [IBIS00561934]
MIC S. Aureus [2]: 0.31 to 0.62 µM
MIC E. Coli. [5]: 1.25 to 2.5 µM

COc1ccccc1CCNC[C@H]1O[C@H](O[C@H]2[C@H](O[C@@H]3O[C@H](CO)[C@@H](O[C@H]4O[C@@H](CN)[C@@H](O)[C@H](O)[C@H]4N)[C@H]3O)[C@@H](O)[C@H](N)C[C@@H]2N)[C@H](N)[C@@H](O)[C@@H]1O [IBIS00561935]
MIC S. Aureus [2]: 0.31 to 0.62 µM
MIC E. Coli. [5]: 1.25 to 2.5 µM

NCC1OC(OC2C(CO)OC(OC3C(O)C(N)CC(N)C3OC3OC(CNCC(O)c4ccccc4)C(O)C(O)C3N)C2O)C(N)C(O)C1O (stereo not drawn) [IBIS00561937]
MIC S. Aureus [2]: 0.6 to 1.2 µM
MIC E. Coli. [5]: 5.0 to 10.0 µM

NC[C@@H]1O[C@H](O[C@H]2[C@@H](O)[C@H](O[C@@H]3[C@@H](O)[C@H](N)C[C@H](N)[C@H]3O[C@H]3O[C@H](CN4CCC5CCCCC54)[C@@H](O)[C@H](O)[C@H]3N)O[C@@H]2CO)[C@H](N)[C@@H](O)[C@@H]1O (stereo partly drawn) [IBIS00561939]
MIC [2]: 0.31 to 0.62 µM (≈ 0.224 to 0.448 µg/mL)
MIC [5]: 1.25 to 2.5 µM (≈ 0.904 to 1.81 µg/mL)

NCC1OC(OC2C(CO)OC(OC3C(O)C(N)CC(N)C3OC3OC(CNCCc4c[nH]c5ccccc45)C(O)C(O)C3N)C2O)C(N)C(O)C1O (stereo not drawn) [IBIS00561940]
MIC S. Aureus [2]: 1.25 to 2.5 µM
MIC E. Coli. [5]: 1.25 to 2.5 µM

NC[C@@H]1O[C@H](O[C@H]2[C@@H](O)[C@H](O[C@@H]3[C@@H](O)[C@H](N)C[C@H](N)[C@H]3O[C@H]3O[C@H](CNCCc4ccc(C(F)(F)F)cc4)[C@@H](O)[C@H](O)[C@H]3N)O[C@@H]2CO)[C@H](N)[C@@H](O)[C@@H]1O [IBIS00561942]
MIC S. Aureus [2]: 0.31 to 0.62 µM
MIC E. Coli. [5]: 1.25 to 2.5 µM

NC[C@@H]1O[C@H](O[C@H]2[C@@H](O)[C@H](O[C@@H]3[C@@H](O)[C@H](N)C[C@H](N)[C@H]3O[C@H]3O[C@H](CNCCc4cccc(C(F)(F)F)c4)[C@@H](O)[C@H](O)[C@H]3N)O[C@@H]2CO)[C@H](N)[C@@H](O)[C@@H]1O [IBIS00561943]
MIC [2]: 0.16 to 0.31 µM (≈ 0.126 to 0.244 µg/mL)
MIC [5]: 0.6 to 1.2 µM (≈ 0.472 to 0.944 µg/mL)

NC[C@@H]1O[C@H](O[C@H]2[C@@H](O)[C@H](O[C@@H]3[C@@H](O)[C@H](N)C[C@H](N)[C@H]3O[C@H]3O[C@H](CNCCc4ccc(F)cc4)[C@@H](O)[C@H](O)[C@H]3N)O[C@@H]2CO)[C@H](N)[C@@H](O)[C@@H]1O [IBIS00561944]
MIC S. Aureus [2]: 0.16 to 0.31 µM
MIC E. Coli. [5]: 0.6 to 1.2 µM

NC[C@@H]1O[C@H](O[C@H]2[C@@H](O)[C@H](O[C@@H]3[C@@H](O)[C@H](N)C[C@H](N)[C@H]3O[C@H]3O[C@H](CO)[C@@H](O)[C@H](O)[C@H]3N)O[C@@H]2CO)[C@H](N)[C@@H](O)[C@@H]1O [Paromomycin]
# Dead mice/Total mice in group ([1]; 0.5 mg/kg): 10/10 (10% Mucin)
# Dead mice/Total mice in group ([1]; 1 mg/kg): 10/10 (10% Mucin)
# Dead mice/Total mice in group ([1]; 2 mg/kg): 9/10 (10% Mucin)

Neomycin
# Dead mice/Total mice in group ([1]; 0.5 mg/kg): 7/10 (10% Mucin)
# Dead mice/Total mice in group ([1]; 1 mg/kg): 10/10 (10% Mucin)
# Dead mice/Total mice in group ([1]; 2 mg/kg): 4/10 (10% Mucin)
